Data: ChEMBL document CHEMBL1156829 (Proc Natl Acad Sci U S A, 2008)

Legend:
Plasmodium falciparum [1] = assay: NOVARTIS: Inhibition of Plasmodium falciparum 3D7 (drug-susceptible) proliferation in erythrocyte-based infection assay; type: functional, organism-based; conditions: Plasmodium falciparum, 3D7
Plasmodium falciparum [2] = assay: NOVARTIS: Inhibition of Plasmodium falciparum W2 (drug-resistant) proliferation in erythrocyte-based infection assay; type: functional, organism-based; conditions: Plasmodium falciparum, W2; read-out: EC50
[3] = NOVARTIS: Cytotoxicity against human hepatocellular carcinoma cell line (Huh7); type: toxicity, cell-based, Huh-7; conditions: Huh7 cells (hepatocellular carcinoma cell line)

| SMILES | EC50 (Plasmodium falciparum [1]) [nM] | EC50 (Plasmodium falciparum [2]) [nM] | CC50 [3] [nM] |
| --- | --- | --- | --- |
| O=C(NCc1ccco1)C1CCN(S(=O)(=O)c2ccc(Cl)cc2)CC1 | 514 | 355 | > 100000 |
| COC(=O)c1ccc(C2C3=C(CC(c4ccc(OC)cc4)CC3=O)Nc3ccccc3N2C(=O)c2ccccc2)cc1 (stereo not given) | 427 | 368 | > 100000 |
| Cc1cc(N2CCC(C)CC2)nc(-n2nc(C)cc2C)n1 | 1100 | 382 | > 100000 |
| COc1ccccc1N1CCN(C(=O)CCCCSc2nnc3c4cc(F)ccc4n(Cc4ccc(F)cc4)c3n2)CC1 | 265 | 207 | > 57700 |
| O=C(NC(c1ccccc1)c1ccc2cccnc2c1O)c1ccccc1 (stereo not given) | 533 | 376 | > 100000 |
| COc1ccc(-n2nc(C(=O)NCc3ccccc3OC)c3ccccc3c2=O)cc1 | 377 | 390 | > 100000 |
| Fc1cccc2sc(Nc3nc(-c4ccccn4)cs3)nc12 | 321 | 95.8 | 24700 |
| Nc1ccc(-c2nc3cc(Cc4ccc5[nH]c(-c6ccc(N)cc6)nc5c4)ccc3[nH]2)cc1 | 243 | 63.4 | 17900 |
| Cc1cc(Nc2ccc(C)c(C)c2)n2nc(C)nc2n1 | 183 | 378 | > 100000 |
| O=C1CN(C(=O)CCC2CCCC2)C(c2ccc(F)cc2)c2cc(F)ccc2N1 (stereo not given) | 666 | 230 | 60300 |
| O=C(Cc1ccccc1)NC(c1ccccc1)c1ccc2cccnc2c1O (stereo not given) | 423 | 382 | > 100000 |
| CN(C)c1ccc(C=CC(=O)NC(=O)c2ccccc2O)cc1 | 118 | 358 | > 100000 |
| O=C1CC(c2ccccc2)CC2=C1C(c1ccccc1F)Nc1ccccc1N2 (stereo not given) | 462 | 359 | > 100000 |
| CC(C)(C)CC(C)(C)Nc1c(-c2ccccc2OC(=O)c2ccc([N+](=O)[O-])cc2)nc2ccccn12 | 251 | 5.28 | 1480 |
| CC(=O)Oc1ccccc1-c1nc2ccccn2c1NC(C)(C)CC(C)(C)C | 489 | 36.7 | > 9440 |
| Cc1cc(C(C)(C)C)cc(S(=O)(=O)NCCO)c1C | > 12500 | 377 | > 100000 |
| CCN1CCN(Cc2c(O)ccc3c(=O)c(Oc4ccccc4Br)c(C(F)(F)F)oc23)CC1 | 1390 | 377 | > 100000 |
| Nc1c(C(=O)Nc2ccc(F)cc2)sc2nc3c(c(-c4cccs4)c12)CCCCC3 | 937 | 388 | > 100000 |

| SMILES | EC50 (Plasmodium falciparum [1]) [nM] | EC50 (Plasmodium falciparum [2]) [nM] | CC50 [3] [nM] |
| --- | --- | --- | --- |
| CCOc1ccccc1NC(=O)Cn1c(=O)n(Cc2ccccc2)c(=O)c2c(C)c(C(=O)N(C)C)sc21 | 883 | 377 | > 100000 |
| Cn1c(-c2ccc([N+](=O)[O-])cc2)[n+](C)c2ccccc21 | 1310 | 376 | > 100000 |
| CC(=O)Nc1ccc(-c2nc3c4ccccc4c4ccc(I)cc4c3[nH]2)cc1 | 296 | 362 | > 100000 |
| CCOc1ccccc1-n1c(N)c(C(=O)Nc2ccc(C)cc2)sc1=S | 1320 | 361 | > 100000 |
| CN(CCCNc1ccnc2cc(Cl)ccc12)C(=O)COc1ccc(Cl)cc1 | 59.2 | 78.5 | 20300 |
| CCOC(=O)c1ccc2c(c1)[C@@H]1C=CC[C@@H]1[C@H](c1ccc(OC)c([N+](=O)[O-])c1)N2 | 390 | 376 | > 100000 |
| CN(c1ncnc2sc3c(c12)CCCC3)C1CCCCC1 | > 921 | < 37.4 | > 10000 |
| COc1cc(Cl)c(C)cc1NC(=O)C1c2ccccc2C(=O)N(CC(C)C)C1c1cccs1 (stereo not given) | 578 | 373 | > 100000 |
| CC[n+]1c(C=C2C=C(C)OC(C)=C2)sc2ccccc21 | 147 | 119 | > 32000 |
| CCC(C)CNC(=O)c1ccc(OC2CCN(CC3CCCCC3)CC2)c(Cl)c1 (stereo not given) | 78.2 | 48.4 | > 13200 |
| O=C1C(NC2CCCC2)=C(N2CCOCC2)C(=O)c2ccccc21 | 119 | 139 | 37900 |
| OCCCCCCCCCCC[n+]1ccccc1 | 133 | 365 | > 100000 |
| C[N+]1(CC(=O)NNc2c3ccccc3nc3ccccc23)CCOCC1 | 637 | 364 | > 100000 |
| CCCCOC(=O)C1=C(C)NC2=C(C(=O)CCC2)C1c1ccc(Cl)c(Cl)c1 (stereo not given) | 574 | 359 | > 100000 |
| CCC(C)OC(=O)C1=C(C)NC2=C(C(=O)CC(c3ccc(Cl)cc3)C2)C1c1cccc(O)c1 (stereo not given) | 1020 | 147 | 39600 |
| Fc1ccc(-c2c[n+](Cc3ccc(Cl)cc3)c3n2CCC3)cc1 | 1140 | 370 | > 100000 |
| CCCCC(=O)Oc1ccccc1-c1nc2ccccn2c1NC(C)(C)CC(C)(C)C | 296 | < 7.1 | 1920 |
